Measurements taken from PubChem BioAssay (NCI).
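All cell lines were grown in 96-well plates and treated with compound for 48 hours. GI50 = concentration required for 50% inhibition of growth. TGI is the concentration that stops growth completely.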

Columns and labels:
Assay in all cases: NCI tumour cell line growth inhibition, 48 h
DU-145 prostate = tested on: DU-145 prostate
IGROV1 ovarian = tested on: IGROV1 ovarian
NCI-H460 lung = tested on: NCI-H460 lung
NCI-H522 lung = tested on: NCI-H522 lung
SF-539 CNS = tested on: SF-539 CNS
SNB-75 CNS = tested on: SNB-75 CNS
SW-620 colon = tested on: SW-620 colon
T-47D breast = tested on: T-47D breast
UACC-257 melanoma = tested on: UACC-257 melanoma
UO-31 renal = tested on: UO-31 renal

Compound	TGI (DU-145 prostate) [µM]	TGI (IGROV1 ovarian) [µM]	TGI (NCI-H460 lung) [µM]	TGI (NCI-H522 lung) [µM]	TGI (SF-539 CNS) [µM]	TGI (SNB-75 CNS) [µM]	TGI (SW-620 colon) [µM]	TGI (T-47D breast) [µM]	TGI (UACC-257 melanoma) [µM]	TGI (UO-31 renal) [µM]	GI50 (DU-145 prostate) [µM]	GI50 (IGROV1 ovarian) [µM]	GI50 (NCI-H460 lung) [µM]	GI50 (NCI-H522 lung) [µM]	GI50 (SNB-75 CNS) [µM]	GI50 (SW-620 colon) [µM]
CCCCC1=C(C(=O)N2CCOCC2)C2(OCCO2)C1=O	> 100	37	> 100	32.6	46.5	> 100	81.9	> 100	89.9	30.3	–	–	–	–	–	–
CC(C)c1cccc(C(C)C)c1NC(=O)/C(CC(=O)CC(c1ccccc1)c1c(O)c2ccccc2oc1=O)=N/O (configuration not stated)	> 100	> 100	> 100	> 100	> 100	> 100	> 100	> 100	> 100	> 100	–	–	–	–	–	–
COc1cc(C(=O)Oc2ccc3c(c2)OCO3)cc(OC)c1OC	> 100	> 100	> 100	> 100	> 100	> 100	> 100	> 100	> 100	> 100	–	–	–	–	–	–
Nc1nc(Cl)cc(NCC2(O)CC2)n1	> 100	> 100	> 100	> 100	> 100	> 100	> 100	> 100	> 100	> 100	–	–	–	–	–	–
C/C=C(/C)C(=O)OC1CC(C)[C@H]2CC(=O)C(C)=C2CC1C(C)(C)OC(C)=O (some centres not stated)	> 100	> 100	42.8	53	41	> 100	> 100	46.2	51.6	83.9	–	–	–	–	–	–
O=C(O)c1cccc2cccc(-c3cccc4cccc(C(=O)O)c34)c12	> 100	> 100	> 100	> 100	> 100	> 100	> 100	> 100	> 100	> 100	–	–	–	–	–	–
CC1CCC2(NC1)OC1CC3C4CC=C5CC(OC6OC(CO)C(OC7OC(C)C(O)C(O)C7O)C(O)C6OC6OC(C)C(O)C(O)C6O)CCC5(C)C4CCC3(C)C1C2C (configuration not stated)	8.61	15.5	9.16	3.43	8.75	5.87	22.3	29	6.67	21.1	–	–	–	–	–	–
Cc1cc(S(=O)(=O)Nc2n[nH]c(-c3ccccn3)n2)c(S)cc1Cl	96	85.4	27.7	72.4	54.3	85.8	54.2	56.2	> 100	10.5	–	–	–	–	–	–
CS(=O)(=O)Nc1ccc2c(c1)N(S(C)(=O)=O)CC2CCl (configuration not stated)	> 100	> 100	> 100	> 100	> 100	> 100	> 100	> 100	> 100	> 100	–	–	–	–	–	–
Cc1ccc2c(c1)-c1c(C#N)c(N)nc(-c3ccc(Cl)cc3)c1CCS2(=O)=O	> 100	> 100	> 100	> 23.1	37.1	14.3	> 100	> 100	> 100	> 100	–	–	–	–	–	–
CC1C(NNc2ccccc2)Oc2cc3c(cc2C1c1ccccc1O)OCO3 (configuration not stated)	15.1	19.3	18.5	14.2	4.56	23.6	28.6	16.2	20.5	11	–	–	–	–	–	–
CN(C)c1ccc(/C=C(\NC(=O)c2ccccc2)c2nn(C)c(=O)o2)cc1	> 100	> 100	> 100	47	> 100	46.8	> 100	> 100	> 100	> 100	–	–	–	–	–	–
COc1cccc2c1C(=O)c1c(O)c3c(c(O)c1C2=O)C[C@H](O)C[C@@H]3OC1CC(N)C(O)C(C)O1 (some centres not stated)	11.6	12.4	13.7	5.86	11.2	15.3	–	15.3	5.15	19.7	–	–	–	–	–	–
Cc1[nH]c(=O)nc(NCCNCCO)c1C(=O)Nc1cccc2cc3ccccc3cc12	> 100	> 100	> 100	> 100	> 100	> 100	> 100	> 100	> 100	–	–	–	–	–	–	–
COc1cc(C(c2c(O)c3ccccc3oc2=O)c2c(O)c3ccccc3oc2=O)cc(Br)c1O	33.6	30	–	26.8	33.7	39.4	48.4	53.3	33	31	–	–	–	–	–	–
O=c1nc2c(c(-c3ccc(Br)cc3)[nH]1)COC/C2=C\c1ccc(Br)cc1	> 50	> 50	> 50	> 50	> 50	> 50	> 50	> 50	> 50	> 50	–	–	–	–	–	–
O=c1[nH]c2nc3ccccc3nc2[nH]c1=O	> 100	> 100	> 100	> 100	> 100	> 100	> 100	> 100	> 100	> 100	–	–	–	–	–	–
CCC(CO)Nc1nc(NCc2ccccc2)c2ncn(C(C)C)c2n1 (configuration not stated)	> 100	> 100	> 100	55.4	26.4	26.8	> 79	> 100	> 94.7	40.7	–	–	–	–	–	–

Compound	TGI (DU-145 prostate) [µM]	TGI (IGROV1 ovarian) [µM]	TGI (NCI-H460 lung) [µM]	TGI (NCI-H522 lung) [µM]	TGI (SF-539 CNS) [µM]	TGI (SNB-75 CNS) [µM]	TGI (SW-620 colon) [µM]	TGI (T-47D breast) [µM]	TGI (UACC-257 melanoma) [µM]	TGI (UO-31 renal) [µM]	GI50 (DU-145 prostate) [µM]	GI50 (IGROV1 ovarian) [µM]	GI50 (NCI-H460 lung) [µM]	GI50 (NCI-H522 lung) [µM]	GI50 (SNB-75 CNS) [µM]	GI50 (SW-620 colon) [µM]
COc1ccc(/C=c2\s/c(=C3/SC(=S)N(c4ccccc4)C3=O)n(-c3ccccc3)c2=O)cc1	> 100	75.9	> 100	> 100	> 100	21.4	> 100	> 100	–	> 100	–	–	–	–	–	–
COc1ccc(OC2OC(CO)C(OCc3ccccc3)C(OCc3ccccc3)C2OCc2ccccc2)cc1 (configuration not stated)	> 100	> 100	> 100	> 100	> 100	> 100	> 100	> 100	> 100	> 100	–	–	–	–	–	–
O=S(=O)(c1cc(Cl)ccc1Cl)n1ccnc1	> 100	> 100	> 100	> 100	39.3	> 100	> 100	> 100	> 100	> 100	–	–	–	–	–	–
CN(C)CCCNC(=O)c1cc(NC(=O)c2cc(NC(=O)CCCn3c4ccccc4c4ccccc43)cn2C)cn1C	40.8	> 75.9	> 94	> 90.6	62.6	39.1	42.8	28	41.2	> 58.2	–	–	–	–	–	–
COC(=O)Cc1ccc2c(cnn2-c2ccccc2)c1OC	> 10	> 10	> 10	> 10	> 10	> 10	> 10	> 10	> 10	–	–	–	–	–	–	–
COc1ccc2nc(/C(N)=C\C#N)ccc2c1	> 100	> 100	> 100	> 100	> 100	> 100	> 100	76.2	> 100	> 100	–	–	–	–	–	–
C=C(C)OCOCCOC	> 100	> 100	> 100	> 100	> 100	> 100	> 100	> 100	> 100	> 100	–	–	–	–	–	–
O=C1C=CC(=O)c2c(O)c(N3CCC[C@H]3CO)c(Cl)c(O)c21	> 6.32	> 7.96	> 10	0.939	> 10	> 10	3.51	4.57	1.92	> 5.84	–	–	–	–	–	–
c1ccc2c(c1)Sc1nccc3ccnc-2c13	> 100	> 100	33.2	97.1	> 100	58.7	> 100	> 100	> 100	47.6	–	–	–	–	–	–
COc1cc2cc(C(=O)N3C[C@H](CCl)c4c3cc(N)c3ccccc43)[nH]c2c(OC)c1OC	< 0.005	0.393	0.0067	< 0.005	3.3	0.0458	> 50	< 0.005	–	–	< 0.005	0.005	0.005	< 0.005	0.0123	0.005
OCCOCn1nncc1Cn1ncc2c(SCc3ccccc3)ncnc21	> 100	> 100	> 100	> 100	> 100	> 100	> 100	> 100	> 100	> 100	–	–	–	–	–	–
NC(=O)c1csc(C2(O)COC(CO)C2O)n1 (configuration not stated)	> 100	> 100	> 100	> 100	> 100	> 100	> 100	> 100	> 100	> 100	–	–	–	–	–	–
c1cncc(CC2(c3cc4ccccc4[nH]3)OCCO2)c1	> 100	> 100	> 100	> 100	> 100	> 100	> 100	> 100	> 100	> 100	–	–	–	–	–	–
CCP(=O)(OC)C1=CCN(C(=O)OCC[Si](C)(C)C)CC1 (configuration not stated)	> 100	> 100	> 100	> 100	> 100	> 100	> 100	> 100	> 100	> 100	–	–	–	–	–	–
Cc1cc2ncn(C3CCCCO3)c2cc1C (configuration not stated)	> 100	> 100	–	> 100	> 100	> 100	> 100	> 100	> 100	75.1	–	–	–	–	–	–
C1=C2C3=[N+](CCCCC3)CC2Cc2ccsc21 (configuration not stated)	> 100	> 100	> 100	> 100	–	> 100	> 100	> 100	85.3	> 100	–	–	–	–	–	–
COc1ccccc1C1Nn2c(nc3ccccc3c2=O)N1c1ccc(C)cc1 (configuration not stated)	28.2	19.8	16.3	28.5	12.1	30.5	18.2	21	43.3	21.2	–	–	–	–	–	–
CCn1c2ccc(C(=O)CCCN3CCCCC3)cc2c2cc(C(=O)CCCN3CCCCC3)ccc21	18.2	8.73	3.12	4.05	3.37	8.26	3.9	49.9	3.77	18.6	–	–	–	–	–	–
